Measured values taken from ChEMBL document CHEMBL1208676, “Synthesis and in vitro antimycobacterial activity of balofloxacin ethylene isatin derivatives” (Eur J Med Chem, 2010).
In brackets after ≈: the same amount, converted by molar mass.

Key:
Mycolicibacterium phlei = experiment: Antimycobacterial activity against Mycobacterium phlei CMCC 93201 after 72 hrs by serial double dilution method; type: functional; conditions: CMCC 93201, 72 h
[1] = tested on: Mycolicibacterium smegmatis; experiment: Antimycobacterial activity against Mycobacterium smegmatis CMCC 93202 after 72 hrs by serial double dilution method; type: functional; conditions: CMCC 93202, 72 h
[2] = tested on: Mycobacterium tuberculosis; experiment: Antimycobacterial activity against Mycobacterium tuberculosis 09710 after 72 hrs by serial double dilution method; type: functional; conditions: Mycobacterium tuberculosis, 09710, 72 h
[3] = Cytotoxicity against african green monkey Vero cells after 72 hrs by MTT assay; type: cell-based; conditions: chlorocebus sabaeus
[4] = tested on: Mycobacterium tuberculosis; experiment: Antimycobacterial activity against Mycobacterium tuberculosis H37Rv ATCC 27294 after 72 hrs by serial double dilution method; type: functional; conditions: H37Rv ATCC 27294, 72 h
[5] = Lipophilicity, log P of the compound; type: physicochemical; conditions: octanol/water

Row | Structure (SMILES) | MIC (Mycolicibacterium phlei) | MIC [1] | MIC [2] | CC50 at 72 h [3] | MIC [4] | logP [5]
1 | COc1c(N2CCCC(N(C)CCN3C(=O)C(=O)c4cc(F)ccc43)C2)c(F)cc2c(=O)c(C(=O)O)cn(C3CC3)c12 (centres undefined) | 25 µg/mL (≈ 43.1 µM) | 12.5 µg/mL (≈ 21.5 µM) | 64 µg/mL (≈ 110 µM) | 96.2 µM |  | 
2 | COc1c(N2C[C@@H]3CCCN[C@@H]3C2)c(F)cc2c(=O)c(C(=O)O)cn(C3CC3)c12 [MOXIFLOXACIN] | 0.2 µg/mL (≈ 0.498 µM) | 0.1 µg/mL (≈ 0.249 µM) | < 0.5 µg/mL |  | 0.25 µg/mL (≈ 0.623 µM) | 
3 | COc1c(N2CCCC(N(C)CCN3C(=O)/C(=N/O)c4cc(F)ccc43)C2)c(F)cc2c(=O)c(C(=O)O)cn(C3CC3)c12 (centres undefined) | 6.25 µg/mL (≈ 10.5 µM) | 12.5 µg/mL (≈ 21 µM) |  | 306 µM |  | 
4 | COc1c(N2CCCC(N(C)CCN3C(=O)/C(=N\NC(N)=S)c4cc(F)ccc43)C2)c(F)cc2c(=O)c(C(=O)O)cn(C3CC3)c12 (centres undefined) | 3.12 µg/mL (≈ 4.77 µM) | 6.25 µg/mL (≈ 9.56 µM) |  | 313 µM |  | 1.8
5 | COc1c(N2CCCC(N(C)CCN3C(=O)/C(=N\NC(N)=S)c4ccccc43)C2)c(F)cc2c(=O)c(C(=O)O)cn(C3CC3)c12 (centres undefined) | 3.12 µg/mL (≈ 4.91 µM) | 6.25 µg/mL (≈ 9.83 µM) |  | 294 µM |  | 1.4
6 | CO/N=C1/C(=O)N(CCN(C)C2CCCN(c3c(F)cc4c(=O)c(C(=O)O)cn(C5CC5)c4c3OC)C2)c2ccc(F)cc21 (centres undefined) | 3.12 µg/mL (≈ 5.12 µM) | 6.25 µg/mL (≈ 10.3 µM) |  | 12.8 µM |  | 
7 | COc1c(N2CCCC(N(C)CCN3C(=O)/C(=N\NC(N)=O)c4cc(F)ccc43)C2)c(F)cc2c(=O)c(C(=O)O)cn(C3CC3)c12 (centres undefined) | 6.25 µg/mL (≈ 9.8 µM) | 6.25 µg/mL (≈ 9.8 µM) |  | 57 µM |  | 
8 | COc1c(N2CCCC(N(C)CCN3C(=O)C(=O)c4ccccc43)C2)c(F)cc2c(=O)c(C(=O)O)cn(C3CC3)c12 (centres undefined) | 25 µg/mL (≈ 44.4 µM) | 25 µg/mL (≈ 44.4 µM) |  | 137 µM |  | 
9 | CNC1CCCN(c2c(F)cc3c(=O)c(C(=O)O)cn(C4CC4)c3c2OC)C1 (centres undefined) [BALOFLOXACIN] | 0.78 µg/mL (≈ 2 µM) | 0.39 µg/mL (≈ 1 µM) | 16 µg/mL (≈ 41.1 µM) | 317 µM | 8 µg/mL (≈ 20.5 µM) | -1.11
10 | COc1c(N2CCCC(N(C)CCN3C(=O)/C(=N\Nc4ccccc4)c4ccccc43)C2)c(F)cc2c(=O)c(C(=O)O)cn(C3CC3)c12 (centres undefined) | 3.12 µg/mL (≈ 4.78 µM) | 6.25 µg/mL (≈ 9.58 µM) |  | < 6.1 µM |  | 
11 | CCO/N=C1/C(=O)N(CCN(C)C2CCCN(c3c(F)cc4c(=O)c(C(=O)O)cn(C5CC5)c4c3OC)C2)c2ccccc21 (centres undefined) | 3.12 µg/mL (≈ 5.15 µM) | 6.25 µg/mL (≈ 10.3 µM) |  | 60.5 µM |  | 0.96
12 | CCO/N=C1/C(=O)N(CCN(C)C2CCCN(c3c(F)cc4c(=O)c(C(=O)O)cn(C5CC5)c4c3OC)C2)c2ccc(F)cc21 (centres undefined) | 3.12 µg/mL (≈ 5 µM) | 6.25 µg/mL (≈ 10 µM) |  | 53.1 µM |  | 1.29
13 | COc1c(N2CCCC(N(C)CCN3C(=O)/C(=N\NC(N)=O)c4ccccc43)C2)c(F)cc2c(=O)c(C(=O)O)cn(C3CC3)c12 (centres undefined) | 12.5 µg/mL (≈ 20.2 µM) | 12.5 µg/mL (≈ 20.2 µM) |  | 56.1 µM |  | 
14 | CO/N=C1/C(=O)N(CCN(C)C2CCCN(c3c(F)cc4c(=O)c(C(=O)O)cn(C5CC5)c4c3OC)C2)c2ccccc21 (centres undefined) | 3.12 µg/mL (≈ 5.27 µM) | 6.25 µg/mL (≈ 10.6 µM) |  | 15 µM |  | 
15 | COc1c(N2CCCC(N(C)CCN3C(=O)/C(=N\Nc4ccccc4)c4cc(F)ccc43)C2)c(F)cc2c(=O)c(C(=O)O)cn(C3CC3)c12 (centres undefined) | 3.12 µg/mL (≈ 4.65 µM) | 6.25 µg/mL (≈ 9.32 µM) |  | < 6 µM |  | 
